Assay results published in patent US10538487B2, “Sulfonylureas and related compounds and use of same” (priority 2015, dated 2020).
Several values for one entry are separate records, joined by “and”; a condition that tells them apart may be missing. Equal entries are not always repeated. Where two headings read alike, the source gives them in different places.

Experiment: Single dose pharmacokinetic study in mice (iv 4 mg/Kg, po 20 mg/Kg), plasma concentration post-dosing
Format: in vivo, mouse
Conditions: mouse
Method: This is advantageous leading to comparatively lower doses or less frequent administration. The procedure followed was: Male C57BL/6 mice were used at 7-9 weeks age with 3 animals per group. Mice were dosed with test compound using single intravenous bolus or oral gavage. Blood samples were taken via submandibular or saphenous vein for analysis of plasma concentrations of compound by LC-MS/MS at the following timepoints: IV (3 mice): 0.083, 0.25, 0.5, 1, 2, 4, 8 and 24 hours post dosing, PO (3 mice): 0.25, 0.5, 1, 2, 4, 8 and 24 hours post dosing. LC-MS/MS method for the quantitative determination of test compound in corresponding biological matrix was developed. […] The results are shown graphically in FIGS. 1A to 1C (MCC950) and FIGS. 2A to 2C (MCC7840).

[1] = IV 4 mg/Kg, individual mice M1-M3, 4 mg/kg
[2] = PO 20 mg/Kg, individual mice M4-M6, 20 mg/kg

CC(C)(O)c1coc(S(=O)(=O)NC(=O)Nc2c3c(cc4c2CCC4)CCC3)c1 [MCC_000950_016, N-((1,2,3,5,6,7-hexahydro-s-indacen-4-yl)carbamoyl)-4-(2-hydroxypropan-2-yl)furan-2-sulfonamide, reference compound]
AUC0-inf (male, C57BL/6, mouse, plasma, po, 20 mg/kg, PO 20 mg/Kg, mean of 3 mice, read-out: AUC0-inf, Mean PO): 126 µg·h/mL
AUC(0-t) (male, C57BL/6, mouse, plasma, po, 20 mg/kg, PO 20 mg/Kg, mean of 3 mice, read-out: AUC0-last, Mean PO): 125 µg·h/mL
Cmax (male, C57BL/6, mouse, plasma, po, 20 mg/kg, PO 20 mg/Kg, mean of 3 mice, read-out: Cmax, Mean PO): 35000 ng/mL
MRT inf (male, C57BL/6, mouse, plasma, po, 20 mg/kg, PO 20 mg/Kg, mean of 3 mice, read-out: MRT0-inf, Mean PO): 3.63 h
MRT last (male, C57BL/6, mouse, plasma, po, 20 mg/kg, PO 20 mg/Kg, mean of 3 mice, read-out: MRT0-last, Mean PO): 3.6 h
half-life (male, C57BL/6, mouse, plasma, po, 20 mg/kg, PO 20 mg/Kg, mean of 3 mice, read-out: T1/2, Mean PO (converted)): 2.39 h
Tmax (male, C57BL/6, mouse, plasma, po, 20 mg/kg, PO 20 mg/Kg, mean of 3 mice, read-out: Tmax, Mean PO): 0.333 h
Plasma concentration, IV Time 5 min (IV 4 mg/Kg, 5 min post dosing, individual mice M1-M3, 4 mg/kg): 17200 ng/mL and 17700 ng/mL
Plasma concentration, IV Time 0.250 h (IV 4 mg/Kg, 0.250 h post dosing, individual mice M1-M3, 4 mg/kg): 10200 ng/mL and 12700 ng/mL
Plasma concentration, IV Time 0.500 h (IV 4 mg/Kg, 0.500 h post dosing, individual mice M1-M3, 4 mg/kg): 9420 ng/mL and 10500 ng/mL
Plasma concentration, IV Time 1.00 h (IV 4 mg/Kg, 1.00 h post dosing, individual mice M1-M3, 4 mg/kg): 7730 ng/mL and 8230 ng/mL
Plasma concentration, IV Time 2.00 h (IV 4 mg/Kg, 2.00 h post dosing, individual mice M1-M3, 4 mg/kg): 6000 ng/mL and 5010 ng/mL
Plasma concentration, IV Time 4.00 h (IV 4 mg/Kg, 4.00 h post dosing, individual mice M1-M3, 4 mg/kg): 2390 ng/mL and 2130 ng/mL
Plasma concentration, IV Time 8.00 h (IV 4 mg/Kg, 8.00 h post dosing, individual mice M1-M3, 4 mg/kg): 843 ng/mL and 480 ng/mL
Plasma concentration, IV Time 24.0 h (IV 4 mg/Kg, 24.0 h post dosing, individual mice M1-M3, 4 mg/kg): 2.33 ng/mL
Tlast (IV 4 mg/Kg, individual mice M1-M3): 24.0 h
AUC0-inf [1]: 33.496 µg·h/mL and 30.758 µg·h/mL
AUC0-last [1]: 33.489 µg·h/mL and 30.751 µg·h/mL
AUCExtra [1]: 0.0226% and 0.0198% and 0.0224%
AUMCExtra [1]: 0.219% and 0.187% and 0.251%
C0 [1]: 22332 ng/mL and 20894 ng/mL
Cl [1]: 1.99 mL/min/kg and 2.17 mL/min/kg
MRT0-inf [1]: 2.84 h and 2.41 h
MRT0-last [1]: 2.83 h and 2.40 h
T1/2 [1]: 1.97 h and 2.05 h
Vdss [1]: 0.339 L/kg and 0.313 L/kg
AUCExtra, Mean IV (IV 4 mg/Kg, mean of 3 mice): 0.0216%
AUMCExtra, Mean IV (IV 4 mg/Kg, mean of 3 mice): 0.219%
C0, Mean IV (IV 4 mg/Kg, mean of 3 mice): 21974 ng/mL
Tlast, Mean IV (IV 4 mg/Kg, mean of 3 mice): 24.0 h
bioavailability (PO 20 mg/Kg vs IV 4 mg/Kg, Mean PO): 71.0%
Plasma concentration, PO Time 0.250 h (PO 20 mg/Kg, 0.250 h post dosing, individual mice M4-M6, 20 mg/kg): 21900 ng/mL and 29000 ng/mL and 48900 ng/mL
Plasma concentration, PO Time 0.500 h (PO 20 mg/Kg, 0.500 h post dosing, individual mice M4-M6, 20 mg/kg): 34100 ng/mL and 35800 ng/mL
Plasma concentration, PO Time 1.00 h (PO 20 mg/Kg, 1.00 h post dosing, individual mice M4-M6, 20 mg/kg): 33700 ng/mL and 37000 ng/mL
Plasma concentration, PO Time 2.00 h (PO 20 mg/Kg, 2.00 h post dosing, individual mice M4-M6, 20 mg/kg): 22500 ng/mL and 26200 ng/mL
Plasma concentration, PO Time 4.00 h (PO 20 mg/Kg, 4.00 h post dosing, individual mice M4-M6, 20 mg/kg): 13000 ng/mL and 10500 ng/mL
Plasma concentration, PO Time 8.00 h (PO 20 mg/Kg, 8.00 h post dosing, individual mice M4-M6, 20 mg/kg): 2360 ng/mL and 4670 ng/mL
Plasma concentration, PO Time 24.0 h (PO 20 mg/Kg, 24.0 h post dosing, individual mice M4-M6, 20 mg/kg): 60.7 ng/mL and 17.4 ng/mL and 39.3 ng/mL
Tlast (PO 20 mg/Kg, individual mice M4-M6): 24.0 h
AUC0-inf [2]: 123.452 µg·h/mL and 144.868 µg·h/mL
AUC0-last [2]: 123.399 µg·h/mL and 144.734 µg·h/mL
AUCExtra [2]: 0.216% and 0.0429% and 0.0929%
AUMCExtra [2]: 1.40% and 0.376% and 0.730%
Cmax [2]: 21900 ng/mL and 34100 ng/mL and 48900 ng/mL
MRT0-last [2]: 3.07 h and 3.47 h
T1/2 [2]: 2.11 h and 2.37 h
Tmax [2]: 0.500 h
AUCExtra, Mean PO (PO 20 mg/Kg, mean of 3 mice): 0.117%
AUMCExtra, Mean PO (PO 20 mg/Kg, mean of 3 mice): 0.835%
Tlast, Mean PO (PO 20 mg/Kg, mean of 3 mice): 24.0 h
